Experimental data published in patent publication US20090191543A1, “IDENTIFICATION OF RAC1B AS A MARKER AND MEDIATOR OF METALLOPROTEINASE-INDUCED MALIGNANCY” (THEREGENTS OF THE UNIVERSITY OF CALIFORNIA, priority 2005, published 2009).

Tests used:
SCp2 cells [1] = assay: PALA resistance assay (genomic instability); type: cell-based, mouse
vimentin = assay: Mesenchymal vimentin expression; type: cell-based, mouse; conditions: for expression of mesenchymal vimentin: MMP-3 4 days or 25 μM H2O2 7 days
Method: (§1) Except as otherwise indicated, cells were incubated in the presence of conditioned medium containing MMP-3 for 4 days and with 25 μM H2O2 for 7 days. NAC was used at a concentration of 10 mM. Antibodies against cytokeratin and vimentin were described previously (Lochter, A. et al. J Biol Chem 272, 5007-15, 1997; Lochter, A. et al. J Cell Biol 139, 1861-72, 1997).
(§2) […]; all modified plasmids were sequence-verified.

SCp2 cells [2] = assay: Cell scattering (FIG. 3f); type: cell-based, mouse
Method: as §1

Snail = Snail transcript expression; type: cell-based, mouse; conditions: FIG. 3b; for expression of the transcription factor Snail: MMP-3, or H2O2 in the absence of MMP-3
Method: as §1, §2

cytokeratins = assay: Epithelial cytokeratin levels in MMP-3-treated cells; type: cell-based, mouse
Excerpt: Cell culture, antibodies, and plasmids. Cell culture was as previously described (Lochter, A. et al. Misregulation of stromelysin-1 expression in mouse mammary tumor cells accompanies acquisition of stromelysin-1-dependent invasive properties. J. Biol Chem 272, 5007-15, 1997; Lochter, A. et al. Matrix metalloproteinase stromelysin-1 triggers a cascade of molecular alterations that leads to stable epithelial-to-mesenchymal conversion and a premalignant phenotype in mammary epithelial cells. J Cell Biol 139, 1861-72, 1997); for gene repression, a 5 mg ml^−1 stock solution of tetracycline in 100% ethanol was diluted 1:1000 into culture medium and changed daily. To stimulate cells with MMP-3, we used medium that had been conditioned by SCp2 cells containing the tet-regulated, autoactivated MMP-3-construct (Lochter, A. et al. J Biol Chem 272, 5007-15, 1997; Lochter, A. et al. J Cell Biol 139, 1861-72, 1997) with expression induced by growth in the absence of tetracycline; conditioned medium from cells repressed by treatment with tetracycline was used for controls. This conditioned medium was analyzed by zymography to verify that only MMP-3 was being expressed, and was shown be active through extracellular proteolysis (FIG. 8). […] NAC was used at a concentration of 10 mM. […]

SCp2 cells [3] = assay: MMP-3-induced cell motility, invasion and morphological alterations (not shown); type: cell-based, mouse; conditions: NAC
8-oxodeoxyguanosine = assay: 8-oxoG analysis, FITC-avidin nuclear staining (DNA damage); type: cell-based, mouse; conditions: for MMP-3-induced increase in FITC-avidin nuclear staining: cells treated with MMP-3 plus inhibitor, FIG. 4b
Method: ROS and 8-oxoG analyses. […] FITC-conjugated avidin (Sigma; 1 hr, 37° C.). […] ID NO: 12). […] J Cell Biol 158, 357-68 (2002).

SCp2 cells [4] = assay: LC50 of PALA for SCp2 cells; conditions: read-out: LC50 of PALA for SCp2 cells
Cdc42 = conditions: MMP-3-treated cells; not shown
SCp2 cells [5] = conditions: MMP-3 for 14 days, then selected with PALA; FIG. 4f
CAD locus = assay: Fluorescence in situ hybridization of CAD gene locus; type: cell-based, mouse; conditions: exposure to MMP-3; FIG. 4d
cellular ROS = conditions: treatment with MMP-3; FIG. 2a
Method: ROS and 8-oxoG analyses. To measure ROS concentrations, cells were incubated in the dark with 50 mM DCFDA (Molecular Probes) for 30 min in serum- and phenol-red-free medium. […] Images were captured using a Nikon Diaphot 300 microscope and Spot RT camera and software (Technical Instruments, Burlingame). Fluorescence was quantified using IMAGEJ (URL:=<http://rsb.info.nih.gov/ij/index.html>). For DCFDA staining, cellular fluorescence was quantified, for FITC-avidin staining, nuclear fluorescence was measured (using a DAPI image mask). More than 250 measurements were made for each data point.

RhoA = conditions: MMP-3-treated cells; not shown
[6] = tested on: keratin, E-cadherin, vimentin, SM actin, TGFβ, Snail, collagen A1 and fibronectin; conditions: cells treated with MMP-3 for 4 days; FIG. 5b
Method: (§3) Transcript levels were assessed using RT/PCR by isolating RNA (Tri-pure; Roche Diagnostics), synthesizing cDNA, and performing quantitative, real-time PCR (Lightcycler, Roche Diagnostics); all these experiments were normalized to GAPDH.

Rac1b = conditions: mammary epithelial cells treated with MMP-3; FIGS. 1b-1d
Method: as §3
For analysis of Rac1 and Rac1b (FIG. 1c), oligonucleotide primers that hybridize to sequences flanking the splice insertion site were used; for specific analysis of Rac1b (FIG. 1d, 4h), oligonucleotide primers specific for the Rac1b splice isoform were used.

mammary epithelial cells = assay: Cell motility assessed by scratch assay; type: cell-based, mouse; conditions: FIG. 1f
Excerpt: FIG. 1f is a graph showing rate of cell migration and motility as assessed by scratch assay (Goodman, S. L., Vollmers, H. P., and Birchmeier, W. Cell 41, 1029-1038, 1985).

MMP-3 = target: T1, MMP-3 (Rattus norvegicus, UniProt P03957); assay: Effect of MMP inhibitor on cells treated with MMP-3 (vimentin-EGFP construct, morphology, FIG. 8b); type: cell-based, mouse
T1 construct: expressed in transfected cells; host or cells: SCp2 cells; conditioned medium used as the MMP-3 source
T1 sequence (P03957 98-475): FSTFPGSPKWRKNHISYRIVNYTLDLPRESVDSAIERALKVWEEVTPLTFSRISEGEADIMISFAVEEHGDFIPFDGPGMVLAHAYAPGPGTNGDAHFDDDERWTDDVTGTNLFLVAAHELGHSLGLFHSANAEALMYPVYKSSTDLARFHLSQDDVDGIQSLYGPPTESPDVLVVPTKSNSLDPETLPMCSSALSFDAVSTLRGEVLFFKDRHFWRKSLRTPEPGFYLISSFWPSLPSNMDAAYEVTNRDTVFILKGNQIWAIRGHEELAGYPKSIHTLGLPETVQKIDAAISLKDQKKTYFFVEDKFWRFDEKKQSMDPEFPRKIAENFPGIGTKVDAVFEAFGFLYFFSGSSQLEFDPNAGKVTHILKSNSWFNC
Excerpt: The MMP inhibitor GM6001 blocked the MMP-3-mediated effects. […] Scale bar, 50 μm.

[7] = SCp2 cells, treatment with MMP-3 for 28 days, FIG. 5a

OO [H2O2, reference compound]
PALA resistance in the absence of MMP-3 (SCp2 cells [1]; H2O2 25 μM, FIG. 4e): reproduced | expression of mesenchymal vimentin (vimentin; FIG. 3g): can stimulate expression | cell scattering (SCp2 cells [2]): cell scattering induced | expression of the transcription factor Snail (Snail): induced

CC(=O)N[C@@H](CS)C(=O)O [NAC, N-acetyl cysteine, reference compound]
MMP-3-induced downregulation of epithelial cytokeratins (cytokeratins; NAC 10 mM, FIG. 3a): effectively inhibited | MMP-3-induced PALA resistance / CAD amplification (SCp2 cells [1]; 14 d treatment with MMP-3, NAC 10 mM, FIG. 4e): inhibited | MMP-3-induced cell motility, invasion, and morphological alterations (SCp2 cells [3]): inhibited | MMP-3-induced increase in FITC-avidin nuclear staining (8-oxodeoxyguanosine): blocked | MMP-3-induced upregulation of mesenchymal vimentin (vimentin; NAC 10 mM, FIG. 3g): effectively inhibited | MMP-3-enhanced expression of transcription factor Snail (Snail; NAC 10 mM): blocked

O=C(O)C[C@H](NC(=O)CP(=O)(O)O)C(=O)O [PALA, N-(phosphonacetyl)-L-aspartate]
CC50 (SCp2 cells [4]): 25 µM

MMP-3: autoactivated MMP-3 supplied as medium conditioned by SCp2 cells with tet-regulated construct
cytokeratin staining (cytokeratins; [7]): decrease in cytokeratins | activity of Cdc42 (Cdc42): unchanged | genomic alterations by CGH analysis (SCp2 cells [5]): many additional genomic amplifications and deletions | PALA-resistant colonies, after 28 days of MMP-3 exposure (SCp2 cells [1]; SCp2 cells, 200 μM PALA, after 28 days): 700 colonies/10^5 cells | PALA-resistant colonies, after one week of MMP-3 exposure (SCp2 cells [1]; SCp2 cells, 200 μM PALA, one week of MMP-3 exposure): 200 colonies/10^5 cells | CAD locus copy number in PALA-resistant cells (CAD locus): amplification of the CAD locus | cellular ROS (DCFDA fluorescence) (cellular ROS): produced increases | FITC-avidin nuclear staining (8-oxodeoxyguanosine; cells treated with MMP-3 vs untreated, FIG. 4a): significantly increased | activity of RhoA (RhoA): unchanged | expression of mesenchymal vimentin (vimentin; FIG. 3g): can stimulate expression | vimentin staining (vimentin; [7]): increase in vimentin | transcript levels of keratin and E-cadherin [6]: greater than two-fold decrease | transcript levels of vimentin, SM actin, TGFβ, Snail, collagen A1 and fibronectin [6]: two-fold or greater increase | Rac1b transcript and expression levels (Rac1b): upregulates | cell scattering (SCp2 cells [2]): cell scattering induced | expression of the transcription factor Snail (Snail): enhances expression | cell migration and motility (mammary epithelial cells): causes an increase

CNC(=O)[C@H](Cc1c[nH]c2ccccc12)NC(=O)[C@@H](CC(=O)NO)CC(C)C [GM6001]
MMP-3-induced increase in FITC-avidin nuclear staining (8-oxodeoxyguanosine): blocked | MMP-3-mediated effects (MMP-3; cells treated with MMP-3): blocked | malignant transformation (flattened morphology of invasive cells) of MMP-3 induced cells (MMP-3; coincubation with GM6001): prevents
